In one assay the test system is responder T cells. Kind of assay: Mixed lymphocyte reaction (MLR), T cell proliferation. Format: cell-based. Particulars: [3H]thymidine incorporation after 48 h, read-out: IC50, inhibition of MLR-mediated T-cell proliferation. The procedure: For MLR cultures 4×10^5 responder T cells are incubated in duplicates with 2×10^5 mitomycin C-treated allogeneic stimulator T cells in a total volume of 200 μl RPMI 1640 medium supplemented with 10% FCS, 2 mM L-glutamine, 100 U/ml penicillin and 100 μg/ml streptomycin (Gibco Life Technologies) in 96 well tissue culture plates (655180, flat bottom, Greiner). Cells are maintained at 37° C. in a humidified atmosphere of 5% CO2. After 48 h of growth, cells are pulsed with 1 μCi [^3H]thymidine and incorporation of [^3H]thymidine is measured with a Topcount radioactive counter (Packard). To investigate the effect of a test compound on MLR-mediated T cell proliferation six three-fold dilution steps in duplicates per test compound are performed (final DMSO concentration 0.1%). Low control values are the proliferation of responder cells alone; high controls are from mixed lymphocyte cells without any test samples. Low controls are subtracted from all values. The inhibition obtained in the presence of a test compound is calculated as percent Inhibition of the high control. The concentration of test compounds resulting in 50% inhibition (IC50) is determined from the dose-response curves. The examples 91, 128, 133 and 137 inhibit MLR-mediated T-cell proliferation in this assay with an IC50<1 μM.

Another assay concerns the target T1, PKCδ (Homo sapiens, UniProt Q05655).
T1 construct: purchased Panvera
Kind of assay: Protein Kinase C δ assay (SPA). It is filed as biochemical. The note with it: human recombinant PKCδ, PKCη pseudosubstrate, read-out: IC50, inhibition of PKC δ. Here is the method: (§1) The compounds of formula 1 are tested for their activity on different protein kinases and PKC isoforms using a scintillation proximity assay (SPA, Amersham International plc). ^33P-labeled peptides are captured onto streptavidin coated yttrium silicate SPA beads. β-particles, emitted from the captured ^33P-labeled substrate in close proximity to the bead are able to excite the scintillant, resulting in the generation of quantifiable light. The assay is performed in a 96-well polystyrene microtiterplate (1450-514, Isoplates, Wallac, Turku, Finland). The reaction mixture (50 μl) contains 10 μl of the test compound together with 10 μl of the relevant kinase, diluted in the relevant dilution buffer, 5 μl of 10 μM phorbol myristate acetate (PMA) in H2O, 5 μl of 1.6 mM phosphatidylserine (Sigma-Aldrich Chemie GmbH, Stein-heim, Germany) in 20 mM Tris/HCL buffer pH 7.4, 5 μl of 0.3% BSA in H2O, 5 μl of 30 μM relevant substrate and 10 μl of 5 μM ATP and 0.1 μCi of ^33P-ATP (Amersham, Freiburg, Germany) in 200 mM Tris/HCL pH 7.5 and 200 mM MgCl2. Incubation is performed for 40 min at room temperature (RT) without shaking. Reaction is stopped by adding 150 μl of cold stop solution containing 10 mM ATP, 5 mM EGTA pH 7.5, 0.1% Triton X-100 and 0.2 mg streptavidin coated yttrium silicate SPA beads (Amersham, RPNQ 0012). The sealed plate is incubated for 60 min at RT. Thereafter the MTP is counted in a Microbeta Jet (Wallac). IC50 measurement is performed on a routine basis by incubation a serial dilution of inhibitor at concentrations ranging between 0.01 and 100 μM according to the method described above. Background values are the signals of the reaction mixture without addition of the relevant kinase and are subtracted from all values. 100% values are the signals of the reaction mixture without addition of inhibitors.
Dependent on the efficacy of the inhibitors In the various test systems, corresponding IC50 values are calculated from concentration-inhibition curves by nonlinear regression analysis using the program GraphPad Prism (GraphPad Software Inc., San Diego, Calif.). […]

For another assay, the target named is T2, PKCβ1 (Homo sapiens, UniProt P05771).
T2 construct: purchased Panvera
Kind of assay: Protein Kinase Cβ1 assay (SPA). Format: biochemical. Particulars: human recombinant PKCβ1, SPA, biotinylated PKCα pseudosubstrate, 0.5 mM CaCl2; read-out: IC50, inhibition of PKC β1. The procedure: as §1
(§2) Dependent on the efficacy of the inhibitors In the various test systems, corresponding IC50 values are calculated from concentration-inhibition curves by nonlinear regression analysis using the program GraphPad Prism (GraphPad Software Inc., San Diego, Calif.).
Human recombinant PKCβ1 was obtained from Panvera and is used under the assay conditions as described above (Section A.1). The enzyme is diluted in PKC dilution buffer containing 1 mM Hepes pH 7.4, 0.5 mM DTT and 0.001% Triton X-100. The assay additionally contains 0.5 mM CaCl2. The kinase reaction is performed with the biotinylated PKCα pseudosubstrate solved in H2O. The examples 29, 45, 52, 128 and 139 inhibit PKC β1 in this assay with an IC50 between 2 and 40 μM.

In another assay the target is T3, PKCη (Homo sapiens, UniProt P24723).
T3 construct: made in house; host or cells: Sf21 insect cells
Kind of assay: Protein Kinase C η assay (SPA). Format: biochemical. The note with it: human recombinant PKCη from Sf21 insect cells, read-out: IC50, inhibition of PKC η. Here is the method: as §1, §2
Human recombinant nickel bead purified PKCη from Sf21 insect cells is used under the assay conditions as described above (Section A.1). The enzyme is diluted in PKC dilution buffer containing 1 mM Hepes pH 7.4, 0.5 mM DTT and 0.001% Triton X-100. The kinase reaction is performed with the biotinylated PKCη pseudosubstrate solved in H2O. The examples 52, 55, 118 and 135 inhibit PKC η in this assay with an IC50 between 6 and 50 μM.

For a further assay, the target named is T4, PKCθ (Homo sapiens, UniProt Q04759).
T4 construct: made in house; host or cells: Sf21 insect cells
Kind of assay: Protein Kinase C θ assay (SPA). Format: biochemical. Particulars: human recombinant PKCθ from Sf21 insect cells, read-out: IC50, inhibition of PKC θ. The procedure:
as §1, §2
Human recombinant nickel bead purified PKCθ from Sf21 insect cells is used under the assay conditions as described above (Section A.1). The enzyme is diluted in PKC dilution buffer containing 1 mM Hepes pH 7.4, 0.5 mM DTT and 0.001% Triton X-100. The kinase reaction is performed with the biotinylated PKCθ pseudosubstrate solved in H2O. The examples 8, 22, 46, 115, 118 and 161 inhibit PKC 9 in this assay with an IC50<1 μM.

The subject of assay [1] is primary human CD4+ T lymphocytes. The assay is described as follows: CD3/CD28 costimulation assay, IL-2 release. Format: cell-based. The note with it: 48 h, IL-2 ELISA, read-out: IC50, inhibition of IL-2 release from stimulated CD4+ T lymphocytes. The procedure: The assay is performed with freshly isolated primary human CD4+ T lymphocytes. CD4+ T lymphocytes from whole blood are prepared using negative selection as previously described (Hatzelmann and Schudt, J. Pharmacol. Exp. Ther. 2001; 297:267-279). In brief, peripheral blood mononuclear cells (PBMC) are isolated by density gradient centrifugation using a Percoll gradient (p= 1.077 g/ml). 1×10^7 PBMC were then resuspended in 30 μl of PBS containing 0.5% FCS and human CD4+ T lymphocytes are isolated by depletion of non CD4+ T cells. For this, non-CD4+ T cells are Indirectly magnetically labeled with 10 μl of a cocktail of biotin-conjugated monoclonal antibodies (against CD8, CD14, CD16, CD19, CD36, CD56, CD123, TCR γ/δ; MACS CD4+ T cell isolation kit II, Miltenyi Biotec), as primary labeling reagent, and anti-biotin monoclonal antibodies conjugated to MicroBeads, as secondary labeling reagent The magnetically labeled non-CD4+ T cells are depleted by retaining them on a MACS column in the magnetic field of a MACS separator (Miltenyi Biotec, Bergisch Gladbach, Germany) according to the manufacturer's instruction. CD4+ T cells are resuspended in RPM 11640 containing 10% heat-inactivated FCS, 2 mM L-glutamine, 100 U/ml penicillin and 100 μg/ml streptomycin (Gibco Life Technologies).
2×10^5 CD4+ T cells in a total assay volume of 200 μl are stimulated via the T-cell receptor and the costimulatory molecule CO28 by using corresponding selective mAbs as previously described (Hatzelmann and Schudt, J. Pharmacol. Exp. Ther. 2001; 297:267-279). The assay is performed in 96 well tissue culture plates (655180, flat bottom, Greiner, Frickenhausen, Germany). Cells were maintained at 37° C. in a humidified atmosphere of 5% CO2 in an incubator (type BB6220 CU, Heraeus Instruments, Hanau, Germany). For determination of IL-2 level, all assays are performed in duplicate, and after 48 h of growth, supernatants are removed, pooled in 96 well plates (650101, U-shape, Greiner) and stored at −20° C. before measurement of IL-2 with a commercially available enzymimmunoassay kit from Coulter-Immunotech Diagnostics (Marseille, France) according to the manufacturer's instruction. For each experiment the appropriate dilution factor for IL-2 is determined. Dilutions are performed in diluent D (Coulter-Immunotech Diagnostics) and IL-2 for one condition is determined from the pool fraction in duplicate in a ELISA-reader (Rainbow, Tecan, Crailsheim, Germany) at 450 nm.
To investigate the effect of a test compound on the IL-2 release of stimulated CD4+ T cells, six three-fold dilution steps in duplicates per test compound are performed (final DMSO concentration 0.1%). […] The inhibition obtained In the presence of a test compound is calculated as percent inhibition of the high control. […]

Structures can show the parent of a compound that is named as a salt.

T3 sequence (P24723 whole entry): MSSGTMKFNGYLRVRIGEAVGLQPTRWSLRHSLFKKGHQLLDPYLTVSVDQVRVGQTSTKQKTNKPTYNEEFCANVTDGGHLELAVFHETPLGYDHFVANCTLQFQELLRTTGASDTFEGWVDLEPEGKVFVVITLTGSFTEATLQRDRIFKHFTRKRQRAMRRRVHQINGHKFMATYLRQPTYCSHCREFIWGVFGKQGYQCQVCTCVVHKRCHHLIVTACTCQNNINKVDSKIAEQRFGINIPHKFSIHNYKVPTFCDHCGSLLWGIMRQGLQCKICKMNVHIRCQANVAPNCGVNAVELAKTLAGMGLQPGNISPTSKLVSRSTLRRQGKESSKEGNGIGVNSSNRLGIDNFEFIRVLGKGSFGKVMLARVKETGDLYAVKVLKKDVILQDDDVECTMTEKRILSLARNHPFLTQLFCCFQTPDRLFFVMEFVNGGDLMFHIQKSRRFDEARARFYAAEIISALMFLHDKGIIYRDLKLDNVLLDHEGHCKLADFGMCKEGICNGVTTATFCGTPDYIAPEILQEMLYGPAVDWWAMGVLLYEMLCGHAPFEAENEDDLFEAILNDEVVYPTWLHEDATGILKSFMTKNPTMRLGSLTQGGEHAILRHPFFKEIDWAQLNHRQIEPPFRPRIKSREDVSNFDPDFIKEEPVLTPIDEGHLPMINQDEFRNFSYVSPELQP
T1 sequence (Q05655 whole entry): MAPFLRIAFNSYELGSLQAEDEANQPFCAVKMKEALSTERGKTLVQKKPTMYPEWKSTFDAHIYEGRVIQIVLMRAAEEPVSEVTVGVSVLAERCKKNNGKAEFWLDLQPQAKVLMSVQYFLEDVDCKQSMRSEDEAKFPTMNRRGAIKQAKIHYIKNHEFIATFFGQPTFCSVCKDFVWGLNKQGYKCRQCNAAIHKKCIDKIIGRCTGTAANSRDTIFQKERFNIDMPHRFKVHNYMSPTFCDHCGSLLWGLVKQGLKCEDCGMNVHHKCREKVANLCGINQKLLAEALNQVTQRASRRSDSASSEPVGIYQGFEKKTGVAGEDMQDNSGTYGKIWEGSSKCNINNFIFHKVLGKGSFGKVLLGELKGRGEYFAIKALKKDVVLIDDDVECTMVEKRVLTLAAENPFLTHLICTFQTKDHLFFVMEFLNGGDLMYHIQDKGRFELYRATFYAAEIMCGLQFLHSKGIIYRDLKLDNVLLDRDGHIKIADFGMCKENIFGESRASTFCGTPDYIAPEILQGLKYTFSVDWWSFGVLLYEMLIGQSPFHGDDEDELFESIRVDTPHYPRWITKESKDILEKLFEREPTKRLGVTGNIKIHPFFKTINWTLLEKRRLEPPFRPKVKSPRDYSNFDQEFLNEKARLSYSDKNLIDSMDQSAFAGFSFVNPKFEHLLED
T4 sequence (Q04759 whole entry): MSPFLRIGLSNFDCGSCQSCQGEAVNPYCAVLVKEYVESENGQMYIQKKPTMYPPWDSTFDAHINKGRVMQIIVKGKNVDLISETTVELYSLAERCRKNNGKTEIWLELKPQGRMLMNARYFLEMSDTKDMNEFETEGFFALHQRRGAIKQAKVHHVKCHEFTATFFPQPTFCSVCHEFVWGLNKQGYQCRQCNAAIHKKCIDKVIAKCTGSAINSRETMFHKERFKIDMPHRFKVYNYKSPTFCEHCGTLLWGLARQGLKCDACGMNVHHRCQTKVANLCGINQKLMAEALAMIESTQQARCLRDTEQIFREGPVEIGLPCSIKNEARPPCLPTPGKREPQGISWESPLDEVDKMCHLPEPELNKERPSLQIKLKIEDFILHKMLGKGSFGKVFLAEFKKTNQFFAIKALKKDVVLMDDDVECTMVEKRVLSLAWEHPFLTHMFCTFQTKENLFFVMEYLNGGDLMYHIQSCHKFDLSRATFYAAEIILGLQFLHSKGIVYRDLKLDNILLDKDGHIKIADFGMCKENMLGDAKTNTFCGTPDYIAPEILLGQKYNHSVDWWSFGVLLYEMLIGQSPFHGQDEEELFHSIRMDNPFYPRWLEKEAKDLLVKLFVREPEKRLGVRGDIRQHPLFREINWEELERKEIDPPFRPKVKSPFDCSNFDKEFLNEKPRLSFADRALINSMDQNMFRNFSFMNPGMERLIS
T2 sequence (P05771 whole entry): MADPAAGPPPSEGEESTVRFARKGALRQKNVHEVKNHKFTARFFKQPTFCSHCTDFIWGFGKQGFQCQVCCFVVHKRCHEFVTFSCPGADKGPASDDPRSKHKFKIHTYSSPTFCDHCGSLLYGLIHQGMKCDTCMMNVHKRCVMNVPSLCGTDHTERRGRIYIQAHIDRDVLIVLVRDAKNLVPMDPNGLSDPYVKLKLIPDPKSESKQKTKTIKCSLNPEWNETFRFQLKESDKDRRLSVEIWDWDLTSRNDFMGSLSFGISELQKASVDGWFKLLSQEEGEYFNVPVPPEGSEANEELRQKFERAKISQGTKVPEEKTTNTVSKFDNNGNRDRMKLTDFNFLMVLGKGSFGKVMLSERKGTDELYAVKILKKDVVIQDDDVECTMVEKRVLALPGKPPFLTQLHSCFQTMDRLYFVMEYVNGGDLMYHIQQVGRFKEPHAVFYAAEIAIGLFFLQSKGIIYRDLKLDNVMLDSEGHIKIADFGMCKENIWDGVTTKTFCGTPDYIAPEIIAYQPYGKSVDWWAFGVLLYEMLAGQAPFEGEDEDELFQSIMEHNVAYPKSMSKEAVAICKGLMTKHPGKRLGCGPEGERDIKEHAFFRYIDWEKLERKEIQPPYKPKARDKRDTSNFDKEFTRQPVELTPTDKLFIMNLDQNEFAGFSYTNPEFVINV

For `CN(C)CCCn1ccc2cc(-c3cc(Nc4ccc(NS(=O)(=O)c5ccc(F)cc5F)cc4)ncn3)ccc21` [Example 133, N-(4-{6-[1-(3-Dimethylamino-propyl)-1H-indol-5-yl]-pyrimidin-4-ylamino}-phenyl)-2,4-difluorobenzenesulfonamide], in the assay with responder T cells, the IC50 is below 1 µM. With `CCN(CC)CCCn1ccc2cc(-c3cc(Nc4ccc(NS(=O)(=O)c5ccc(F)cc5F)cc4)ncn3)ccc21` [Example 168, N-(4-{6-[1-(3-Diethylamino-propyl)-1H-indol-5-yl]-pyrimidin-4-ylamino}-phenyl)-2,4-difluoro-benzenesulfonamide formic acid salt], on PKCδ, the IC50 lay within 2 to 18 µM. For the compound `COc1ccc(S(=O)(=O)Nc2ccc(Nc3cc(-c4ccc5c(ccn5CCN(C)C)c4)ncn3)cc2)cc1` [Example 132, N-(4-{6-[1-(2-Dimethylamino-ethyl)-1H-indol-5-yl]-pyrimidin-4-ylamino}-phenyl)-4-methoxy-benzenesulfonamide], at PKCδ, the IC50 lay in the range of 2 to 18 µM.

`COc1ccc(S(=O)(=O)Nc2ccc(Nc3cc(-c4ccc(OCCN5CCN(C)CC5)cc4)ncn3)cc2)cc1` [Example 52, 4-Methoxy-N-[4-(6-{4-[2-(4-methyl-piperazin-1-yl)-ethoxy]-phenyl}-pyrimidin-4-ylamino)-phenyl]-benzenesulfonamide]: the IC50 at PKCβ1 lay within 2 to 40 µM; at PKCη it was 6 to 50 µM. `O=S(=O)(Nc1ccc(Nc2cc(-c3ccc4[nH]ccc4c3)ncn2)cc1)c1ccc(F)cc1F` [Example 118, 2,4-Difluoro-N-{4-[6-(1H-indol-5-yl)-pyrimidin-4-ylamino]-phenyl}-benzenesulfonamide]: the IC50 was 6 to 50 µM on PKCη and below 1 µM at PKCθ. Take `Cc1ccc(S(=O)(=O)Nc2ccc(Nc3cc(-c4ccc5c(ccn5CCN(C)C)c4)ncn3)cc2)cc1` [Example 136, N-(4-{6-[1-(2-Dimethylamino-ethyl)-1H-indol-5-yl]pyrimidin-4-ylamino}-phenyl)-4-methyl-benzenesulfonamide]: the IC50 in assay [1] was 1 to 9 µM. Still for that read-out and setting: for `COc1cccc(-c2cc(Nc3ccc(NS(=O)(=O)c4ccccc4F)cc3)ncn2)c1` [Example 20, 2-Fluoro-N-{4-[6-(3-methoxy-phenyl)-pyrimidin-4-ylamino]-phenyl}-benzenesulfonamide] the value was 1 to 9 µM. `CN1CCC(COc2ccc(-c3cc(Nc4ccc(NS(=O)(=O)c5ccc(F)cc5F)cc4)ncn3)cc2)CC1` [Example 91, 2,4-Difluoro-N-(4-{6-[4-(1-methyl-piperidin-4-ylmethoxy)-phenyl]-pyrimidin-4-ylamino}-phenyl)-benzenesulfonamide formic acid salt]: the IC50 with responder T cells was below 1 µM.

For the compound `COc1cccc(-c2cc(Nc3ccc(NS(=O)(=O)c4ccc(C#N)cc4)cc3)ncn2)c1` [Example 19, 4-Cyano-N-{4-[6-(3-methoxy-phenyl)-pyrimidin-4-ylamino]phenyl}benzenesulfonamide], the IC50 in assay [1] was in the range of 1 to 9 µM. Take `O=S(=O)(Nc1ccc(Nc2cc(-c3cccc4ccccc34)ncn2)cc1)c1ccccc1F` [Example 13, 2-Fluoro-N-[4-(6-naphthalen-1-yl-pyrimidin-4-ylamino)-phenyl]-benzenesulfonamide]: the IC50 in assay [1] was 1 to 9 µM.

For the compound `CN(C)CCCn1ccc2cc(-c3cc(Nc4ccc(NS(=O)(=O)c5ccc(F)c(Cl)c5)cc4)ncn3)ccc21` [Example 137, 3-Chloro-N-(4-{6-[1-(3-dimethylamino-propyl)-1H-indol-5-yl]-pyrimidin-4-ylamino}-phenyl)-4-fluoro-benzenesulfonamide], the IC50 in the assay on responder T cells was below 1 µM.

(Values after patent US20080242681A1, “N-4-(6-(Hetero)Aryl-Pyrimidin-4-Ylaminophenyl)-Benzenesulfonamides as Kinase Inhibitors” (Altana Pharma AG, priority 2004, published 2008).)
